# Data as given in PMC9354243, “The Role of Tryptophan in π Interactions in Proteins: An Experimental Approach” (Journal of the American Chemical Society, 2022).
# Tests used:
# [1] = target: T1, RibU W97Y labeled with 5FW (Lactococcus lactis subsp. cremoris, UniProt D8KIE9, W97Y); assay: Fluorescence titration of RibU with RBF, 5FW variant; assay type: binding
# T1 construct: His10; made in house; host or cells: Lactococcus lactis Trp auxotroph NZ9000-trp with pMG36e-trpRS
# Method: (§1) Fluorescence titration experiments of the different RibU constructs with RBF at 20 °C allowed estimation of the impact of W68 fluorination or 5-methylation on the binding affinity (Figure 3 and Table 5).
# (§2) Figure 3 Titration of Trp analog labeled RibU W97Y proteins with RBF. The RBF fluorescence was measured at the indicated RBF concentrations in the absence (triangles) or presence (dots) of the W97Y RibU variant (see insets). The difference between these two signals were calculated to build the titration curve. This curve was used to compute the RBF Kd (see Experimental Section in the Supporting Information). […]
# (§3) Binding assays – Fluorescence titrations of RibU with RBF.
# (§4) The concentration of the riboflavin stock was established using a Jasco V-650 spectrophotometer with an ε435 of 12600 M-1.cm-1 The concentration of RibU-His was calculated using a Nanodrop (Thermo […]
# (§5) Riboflavin was excited at 435 nm and emission was recorded between 450 nm and 700 nm using a FluoroLog 322 Spectrofluorometer (Jobin Yvon). […] Titration experiments were performed in a 1 mL quartz cuvette at 20 °C as described.13 In brief, purified and desalted RibU protein in gel filtration buffer was titrated with RBF and after each addition the emission spectrum was recorded twice, corrected for buffer emission and instrument response and integrated. […]
# RibU W97Y [2] = target: T2, RibU W97Y (Lactococcus lactis subsp. cremoris, UniProt D8KIE9, W97Y); assay: Fluorescence titration of RibU with RBF, natural Trp (W); assay type: binding
# T2 construct: His10; made in house; host or cells: Lactococcus lactis Trp auxotroph NZ9000-trp with pMG36e-trpRS
# T2 sequence (D8KIE9 whole entry W97Y): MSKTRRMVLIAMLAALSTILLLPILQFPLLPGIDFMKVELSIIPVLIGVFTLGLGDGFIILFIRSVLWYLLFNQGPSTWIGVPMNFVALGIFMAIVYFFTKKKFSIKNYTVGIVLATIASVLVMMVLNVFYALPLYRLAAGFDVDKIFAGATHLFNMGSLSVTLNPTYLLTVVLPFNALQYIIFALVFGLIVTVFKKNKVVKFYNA
# Method: as §1
# (§6) Figure 3 Titration of Trp analog labeled RibU W97Y proteins with RBF. The RBF fluorescence was measured at the indicated RBF concentrations in the absence (triangles) or presence (dots) of the W97Y RibU variant (see insets). The difference between these two signals were calculated to build the titration curve. This curve was used to compute the RBF Kd (see Experimental Section in the Supporting Information). Panels from left to right present the results for RibU W97Y, labeled with 5MeW, 5FW, 5,7diFW, and 5,6,7triFW, respectively.
# as §3, §4
# (§7) Riboflavin was excited at 435 nm and emission was recorded between 450 nm and 700 nm using a FluoroLog 322 Spectrofluorometer (Jobin Yvon). The excitation and emission s lits were set at 1.1 nm and 3.5 nm, respectively. Titration experiments were performed in a 1 mL quartz cuvette at 20 °C as described.13 In brief, purified and desalted RibU protein in gel filtration buffer was titrated with RBF and after each addition the emission spectrum was recorded twice, corrected for buffer emission and instrument response and integrated. The integrated emission intensities were corrected for dilution and compared to the integrated emission of riboflavin collected under these conditions in the absence […]
# (§8) The Kd of RBF was derived by first determining the difference in fluorescence signal between the blan k titration with only the gel filtration buffer and the titration using the protein RibU -His in buffer. The obtained curve was fitted using equation I and the program OriginLab16 with n = number of binding sites, X = total RibU concentration, and S = maximal fluorescence signal in A.U. […]
# RibU W97Y [3] = assay: as above; assay type: binding, Lactococcus lactis; conditions: extrapolation to RibU labeled with tetrafluoroTrp
# Method: as §1, §6, §3, §4, §7, §8
# RibU = target: RibU; set-up: method as in PMID 17289680; conditions: cited from earlier work
# [4] = target: T3, RibU W97Y labeled with 5,7diFW (Lactococcus lactis subsp. cremoris, UniProt D8KIE9, W97Y); assay: Fluorescence titration of RibU with RBF, 5,7diFW variant; assay type: binding
# T3 construct: His10; made in house; host or cells: Lactococcus lactis Trp auxotroph NZ9000-trp with pMG36e-trpRS
# T3 sequence (D8KIE9 whole entry W97Y): as above
# Method: as §1, §2, §3, §4, §5
# T1 sequence (D8KIE9 whole entry W97Y): as above
structure (smiles),measurement,setting,value
"Cc1cc2nc3c(=O)[nH]c(=O)nc-3n(C[C@H](O)[C@H](O)[C@H](O)CO)c2cc1C [RBF, riboflavin]",Kd,[1],5.4 ± 1 nM
same,Kd,RibU W97Y [2],1.8 ± 0.8 nM
same,Electrostatic contribution of W68 as share of total RBF binding energy,RibU W97Y [2]; RibU containing natural Trp,15–20%
same,Lowering of ΔG for RBF binding,RibU W97Y [3],~1.9 kcal/mol
same,Kd,RibU,~1 nM
same,Kd,[4],8.2 ± 0.9 nM
